According to patent US20250032581A1, “COMPOSITIONS AND ARTICLES COMPRISING AN ADNF POLYPEPTIDE” (RAMOT AT TEL-AVIV UNIVERSITY LTD., priority 2021, published 2025):

Legend:
[1] = system: ADNP^+/− MOUSE; set-up: key: corrections by NAP treatment (+); settings: Adnp+/− mouse (second symbol); cited from earlier work
[2] = system: mice with the ASD-linked InsG3680 mutation (SHANK3); test: Social recognition test in the SHANK3 mouse model; assay type: in vivo; settings: intranasal NAP
Procedure: (§1) To this end, mice with the ASD-linked InsG3680 mutation were used. Two behavioral assessments were performed on make mice: • 1) Open field behavior attesting to anxiety and depression (Open field behavioral assessment technology was previously described, e.g.); and • 2) Social recognition behavior, related to autistic traits (the social recognition test was previously described, e.g..
In the social recognition test, the results measured both time exploring and frequency exploring the mouse or cup, either directly or in the chamber where the mouse or cup only are present (FIG. 13).

[3] = adult patients; cited from earlier work
[4] = system: differentiated N1E-115 cells expressing RFP-tagged EB3; test: Live imaging of EB3 comet-like structures (MT dynamics); assay type: cell-based, mouse
Source text: Plasmid construction—Protein expressing plasmids were constructed as previously described based on pEGFP-C1 backbone and express full-length ADNP or the following truncated ADNP proteins: p.Glu830synfs*83, p.Lys408Valfs*31, p.Ser404* (as before). Inserts of cDNA carrying unique mutations were obtained from mRNA extracted from patient-derived lymphoblastoid cell lines and cDNA with full-length human ADNP was obtained from a control lymphoblastoid cell line with no mutation. Protein expressions were verified by fluorescent imaging and immunoblotting analysis as before.
Cell culture—Mouse neuroblastoma NIE-115 cells were maintained in Dulbecco's modified Eagle's medium, 10% fetal bovine serum, 2 mM glutamine and 100 U ml-1 penicillin, 100 mg ml-1 streptomycin (Biological Industries, Beit Haemek, Israel). The cells were incubated in 9 5% air/5% CO2 in a humidified incubator at 37° C.
Cell differentiation and co-transfection of overexpression plasmids—Cultured NIE-115 cells were plated on 35 mm dishes (81156, 60 p-Dish, Ibidi, Martinsried, Germany) at a concentration of 1.25×10^4 cells per dish and then were differentiated with reduced fetal bovine serum (2%) and DMSO (1.25%) containing medium for 5 days before transfection. 48 hrs before experiments N1E-115 cells were co-transfected with 1 μg EB3-RFP or mCherry-Tau (3R) plasmid with or without 2 μg of plasmids, coding to GFP conjugated to full-length human ADNP, or ADNP carried mutations. 1:3 ratios between total amount of transfected DNA and transfection reagent were used according to manufacture guidance (Lipofectamine2000, Thermo Fisher Scientific, Waltham, MA, USA) in all subsequent experiments.
Live Imaging—48 hrs after transfection, differentiated NIE-115 cells (expressing EB3-RFP with or without GFP-conjugated to full-length ADNP or mutated ADNP) were incubated at 37° C. with a 5% CO2/95% air mixture in a thermostatic chamber placed on the stage of a Leica TCS SP5 confocal microscope (objective 100× (PL Apo) oil immersion, NA 1.4). Time-lapse images were automatically captured 3 sec during 1 min, using the Leica LAS AF software. After imaging all samples were also treated with NAP (SEQ ID NO: 2) or SKIP (SEQ ID NO: 21) in final concentrations of 10^−12M, and after 4 hrs time-lapse imaging was done again under the same conditions. Data was collected and analyzed by Imaris software.
To evaluate the effect of ADNP truncated proteins on MT dynamics time-lapse imaging of EB3 comet-like structures formed by RFP-tagged EB3 proteins that bind to MT plus-ends was performed. Two parameters of EB3 activity were used to assess MT dynamics—track length and track speed of EB3 comets, which reflect the length of freshly growing MTs and the speed of MT assembly, respectively. Furthermore, the present inventors aimed to determine whether NAP ([…] for 4 hrs) could prevent the deleterious effect of ADNP mutations.

[5] = system: Tyr mice; test: Visual evoked potentials (VEP); assay type: in vivo, mouse; set-up: key to NAP efficacy: visual evoked potential/axonal transport: corrections by NAP treatment (+)
Procedure: VEP—5.72±0.52-week-old male mice were used for VEP measurements. Animals were treated for 3 days with 0.1 ml S.C saline, recorded, and then followed by 4 daily S.C doses of either 1 μg NAP (in 0.1 ml saline) or 0.1 ml saline followed by another VEP recording.

[6] = system: mice with the ASD-linked InsG3680 mutation (SHANK3); test: Open field behavior in the SHANK3 mouse model; assay type: in vivo; settings: intranasal NAP once daily, five days a week for a month
Procedure: as §1
This surprising finding is of importance as there is a psychiatric illness and regression in individuals with Phelan-McDermid syndrome.

Compound: CC[C@H](C)[C@H](NC(=O)[C@H](CO)NC(=O)[C@@H](NC(=O)[C@@H]1CCCN1C(=O)[C@H](C)NC(=O)[C@@H](N)CC(N)=O)C(C)C)C(=O)N1CCC[C@H]1C(=O)N[C@@H](CCC(N)=O)C(=O)O [NAP, NAPVSIPQ]
- NAP efficacy: visual evoked potential/axonal transport [1]: +/+
- social recognition: mouse vs. cup exploration [2]: normalization of behavior in the NAP-treated SHANK3 mouse model
- efficacy in clinical studies [3]: enhancement of cognitive function and functional activities of daily living
- EB3 track length and speed ([4]; 10^−12M, 4 hrs, vs. non-treated control, no significant differences between NAP and SKIP): increased EB3 track length and speed
- EB3 comet speed and track length ([4]; cells expressing ADNP p.Glu830synfs*83, NAP 4 hrs): significantly augmented
- EB3 comet speed and track length ([4]; cells expressing ADNP p.Ser404*, NAP 4 hrs): significantly augmented
- EB3 comet track length and speed ([4]; cells expressing full-length ADNP, NAP 4 hrs): did not further influence the effect of full-length ADNP
- VEP P3 AUC ([5]; Tyr males): significant NAP effect seen in the 300 and 3000 mcd intensities
- NAP efficacy: visual evoked potential/axonal transport ([5]; Tyr mouse (first symbol)): +/+
- open field: cumulative duration in the center [6]: significantly increased by NAP treatment
